In PubChem BioAssay (NCI) one finds TGI and GI50 data, which are given here for 27 molecules.

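Each compound was tested at five concentrations against cells in 96-well plates for 48 hours. At the GI50, growth is halved. The concentration for full growth arrest is given as TGI.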 Some results are limits rather than exact numbers.

Experiment in all cases: NCI tumour cell line growth inhibition, 48 h
Test [1] concerns CAKI-1 renal.
Test [2] concerns HT29 colon.
Test [3] has as its system IGROV1 ovarian.
The test system of test [4] is KM12 colon.
Test [5] concerns LOX IMVI melanoma.
In test [6] the test system is SF-268 CNS.
Test [7] has as its system SF-295 CNS.
For test [8], the system named is SK-MEL-2 melanoma.
In test [9] the test system is UACC-257 melanoma.

Turning to `CC(=O)OC1C(O[C@H]2CC[C@]34O[C@]35CC[C@]3(C)C(C6(C)CC[C@@H](C(C)(C)O)O6)[C@@H](O)CC3(C)[C@@H]5CC(OC3OC(CO)C(O)C(O)C3O)C4C2(C)C)OCC(O)C1O` (some centres undefined), the TGI in test [1] is over 100 µM; in [2] it was over 100 µM; in test [3] it was over 100 µM; in test [4], over 100 µM; in test [5], over 59.3 µM; in [6] it was over 100 µM. Also, the TGI in test [7], in [8] and in [9] was over 100 µM in each case.

As for `O=C(/C(=N/Nc1ccccc1)c1ccc([N+](=O)[O-])cc1)c1ccc([N+](=O)[O-])cc1`, the TGI in test [1], in [2], in test [3], in [4], in test [7] and in test [8] was over 100 µM throughout. Further, in test [9], the TGI is over 100 µM.

`N#C/C(=C\c1ccccc1)C(NO)Nc1ccccc1` (centres undefined): the TGI in test [1], in test [2], in [3], in [4], in test [6] and in [7] was over 100 µM each time. In addition, the TGI in test [8] and in test [9] was over 100 µM in each case.

Regarding `O=C([CH-]C(=O)c1ccccc1)c1ccccc1.O=C([CH-]C(=O)c1ccccc1)c1ccccc1.O=C([CH-]C(=O)c1ccccc1)c1ccccc1.[Cl-].[Zr+4]`, the GI50 in test [1] is 12.4 µM; in [2] it was 29 µM; in test [3], 34.3 µM; in test [4], 12.4 µM; in test [5], 26.7 µM; in test [6], 15.8 µM. In addition, the GI50 in [7] is 12.8 µM; in test [8], 10 µM; in [9], 17.2 µM. The TGI in test [1] is 63.8 µM; in test [2], over 100 µM; in test [3] it was over 100 µM; in test [4] it was 56.6 µM; in test [5], over 100 µM; in [6], over 100 µM. The values for the TGI in test [7], in test [8] and in test [9] were over 100 µM, 41.2 µM and 73.1 µM, respectively.

On to `CCC[CH2][Sn]([CH2]CCC)([O]C(=O)c1cccc(F)c1F)[O]C(=O)c1cccc(F)c1F`, for which the GI50 in test [2] is 1.62 µM; in [3], 1.4 µM; in test [4] it was 1.52 µM; in test [5] it was 0.519 µM; in test [6], 0.838 µM; in test [7], 1.52 µM. In addition, the figures for the GI50 in test [8] and in [9] were 0.41 µM and 1.09 µM, respectively. The TGI is 2.99 µM in test [2]; 2.76 µM in test [3]; 2.85 µM in test [4]; 1.74 µM in test [5]; 2.15 µM in test [6]; 2.85 µM in test [7]. Moreover, the TGI amounted to 1.46 µM in test [8] and 2.28 µM in test [9].

Turning to `CCC(=O)C(C(=O)CC)c1c(OC(=O)c2ccccc2)ccc(O)c1C(=O)OC`, the TGI in test [1], in [2], in test [3], in [4], in test [5] and in test [6] was over 100 µM each time. Also, the TGI in [7], in test [8] and in [9] was over 100 µM throughout.

As to `Clc1ccc(OCc2nnc3n2N=C(c2ccccc2)CS3)c(Cl)c1`, the TGI was over 100 µM in [1]; over 100 µM in [2]; over 100 µM in test [3]; over 100 µM in test [4]; 5.87 µM in test [5]; over 100 µM in test [6]. The TGI was 86.6 µM in test [7], over 100 µM in [8] and over 100 µM in [9].

On to `COc1ccc2c(c1)[n+](=O)c(C(=O)CC(=O)C(=O)Nc1cccc(C)c1C)c(C)n2[O-]`, for which the TGI in test [1], in [2], in test [3], in test [4], in test [5] and in test [6] was over 100 µM each time. The TGI in test [7], in test [8] and in test [9] was over 100 µM throughout.

Turning to `O=C1C=C(Nc2ccc(S(=O)(=O)Nc3ncccn3)cc2)c2ccccc2C1=O`, the TGI in [1] came to 89.1 µM; in test [2] it was 45 µM; in test [3], 58 µM; in test [4] it was 38.6 µM; in test [5] it was 30 µM; in test [6] it was 59.7 µM. For the same molecule, the TGI in test [7] is 35 µM; in test [8], 85.2 µM; in [9], 41.7 µM.

For `C/C(CC(=O)Nc1ccc(NC(=O)C/C(C)=N\NC(N)=O)cc1)=N/NC(N)=O`, the TGI in [1] is over 100 µM; in [2], over 100 µM; in test [3], over 100 µM; in test [4] it was over 100 µM; in [5], over 60.1 µM; in test [6], over 100 µM. The TGI in [7], in test [8] and in test [9] was over 100 µM throughout.

For the molecule `CCOC(=O)C1=C(C(=O)OCC)C2(c3ccccc3)N(O1)c1ccccc1C2(C)C` (centres undefined), the TGI in test [1], in test [2], in [3], in [4], in test [6] and in test [7] was over 100 µM in each case. Besides, the TGI in test [8] and in test [9] was over 100 µM throughout.

With `CCN(CC)c1ccc(N=Nc2ccc(-c3nc4cccn(C)c-4n3)cc2)cc1`, the TGI was determined as 41.5 µM in test [1]; 13.8 µM in test [2]; 25 µM in [3]; 24.9 µM in [4]; 6.42 µM in test [5]; 50.1 µM in [6]. Besides, the TGI was 19.4 µM in test [7], 35.3 µM in test [8] and 42.3 µM in test [9].

Regarding `c1ccc(C2CC(c3ccc4ccccc4c3)=Nc3ccccc3S2)cc1` (centres undefined), the TGI amounted to 30.8 µM in [2]; 49 µM in test [3]; 38.8 µM in test [4]; 29.5 µM in [5]; 31.1 µM in test [6]; 31.7 µM in [7]. In addition, the figures for the TGI in [8] and in [9] were 34.6 µM and 34.9 µM, respectively.

For the molecule `Cc1ccccc1N=Nc1c(-c2ccccc2)nn(C(=O)CC(=O)Nc2cccc(Cl)c2)c1-c1ccccc1`, the TGI in test [1] is over 100 µM; in test [2] it was 23.4 µM; in [3], over 31.6 µM; in test [5], 25.3 µM; in test [6] it was over 31.6 µM; in test [7], over 31.6 µM. The TGI in test [8] came out at 26 µM; in test [9], 2.58 µM.

Regarding `CC1=C(C(=O)Nc2ccccc2)C(c2cc(Cl)cc(Cl)c2)C(C(=O)Nc2ccccc2)=C(C)N1`, the TGI in [1] was found to be 31.6 µM; in test [2] it was 21.4 µM; in test [3], 41.9 µM; in test [4] it was 16.8 µM; in test [5], 24.6 µM; in test [6] it was 15.3 µM. For the same molecule, the results for the TGI in test [7], in test [8] and in test [9] were 28.8 µM, 25.8 µM and 27.2 µM, respectively.

For the molecule `O=C(N/C(=C/c1cccc([N+](=O)[O-])c1)c1nc2ccc(Cl)cc2[nH]1)c1ccccc1`, the TGI in test [1] is 71.3 µM; in [2], 50.9 µM; in test [3] it was 27 µM; in test [4], 31.1 µM; in test [5], 58.3 µM; in test [6], over 100 µM. Also, the TGI in [7] is over 100 µM; in test [8], 50.3 µM; in test [9], over 100 µM.

On to `c1cc[c]([Sn]([O]c2cccc3cccnc23)([O]c2cccc3cccnc23)[c]2ccccc2)cc1`, for which the GI50 in test [1] is 0.179 µM; in [3], 1.55 µM; in [5], 0.198 µM; in test [6] it was 0.41 µM; in test [7], 1.72 µM. Also, the TGI in test [1] was 0.383 µM; in [3], 3.06 µM; in test [5] it was 0.424 µM; in [6], 1.5 µM; in test [7] it was 3.22 µM.

In the case of `C1CC2=C(C1)C1=S(S2)SC2=C1CCC2`, the TGI in test [1], in [2], in [3], in [4], in test [5] and in [6] was over 100 µM throughout. Further, the TGI in [7], in [8] and in test [9] was over 100 µM in each case.

With `COC(=O)N/N=C(\C)C(CN(C)C)C(c1ccccc1)c1c(O)c2ccccc2oc1=O` (centres undefined), the TGI in [1], in test [2], in test [3], in test [4], in [5] and in test [6] was over 100 µM each time. The TGI in [7], in [8] and in test [9] was over 100 µM throughout.

With `CCCCN1C(=O)/C(=c2\sc3n(c2=O)C2C(NN=3)N(CC)C(=O)N2CC)c2ccccc21` (centres undefined), the GI50 is 0.764 µM in test [3], 0.959 µM in test [6], 0.456 µM in test [7] and 1.47 µM in test [8]. Besides, the TGI in [3] is 3.6 µM; in test [6] it was 4.71 µM; in [7], 2.26 µM; in test [8], 5.75 µM.

`O=c1[nH]c(=O)n(C2CC(O)C(CO)O2)cc1COCC(F)(F)F` (centres undefined): the TGI in test [1], in test [2], in [3], in test [4], in [5] and in [6] was over 100 µM in each case. For the same molecule, the TGI in test [7], in [8] and in [9] was over 100 µM each time.

For the molecule `C=Cc1c(C)c2cc3[nH]c(cc4nc(cc5nc(cc1[nH]2)C(C)=C5CCC(=O)N(CC)CC)C(CCC(=O)N(CC)CC)=C4C)c(C)c3C=C`, the TGI in test [2], in test [3], in test [4], in test [5], in test [7] and in [8] was over 100 µM each time. The molecule further registered a TGI in test [9] of over 100 µM.

Regarding `CC1(C)C(=O)C(=Cc2ccco2)C1=O`, the TGI in test [1], in [2], in test [3], in test [4], in test [5] and in [6] was over 100 µM throughout. Further, the TGI in test [7], in test [8] and in test [9] was over 100 µM each time.

Take `COc1cccc2nc3c(C(=O)NCCN(C)C)cccc3nc12`: the TGI was over 100 µM in test [1]; 32 µM in test [2]; over 72.9 µM in test [3]; 36.9 µM in [4]; 14.1 µM in test [5]; 1.84 µM in test [6]. The results for the TGI in [7], in [8] and in [9] were 36.8 µM, 22.7 µM and 27.1 µM, respectively.

`O=C(NC(=O)c1cn(CCN2CCN(C(=O)NCCCCCCNC(=O)N3CCN(CCn4cc(C(=O)NC(=O)OCc5ccccc5)c(=O)[nH]c4=O)CC3)CC2)c(=O)[nH]c1=O)OCc1ccccc1`: the TGI in test [1], in [2], in test [3], in test [5], in test [7] and in test [9] was over 100 µM each time.

For `O=c1c2cccnc2ncn1CCCN1CCCC1`, the TGI in [1], in [2], in test [3], in test [4], in test [5] and in [6] was over 100 µM each time. Moreover, the TGI in test [7] and in test [8] was over 100 µM throughout.

As to `CCC[CH2][Sn]([CH2]CCC)([CH2]CCC)[O]C(=O)C(OC)c1ccccc1` (centres undefined), the GI50 in test [1] is 0.115 µM; in [2] it was 0.0507 µM; in [3], 0.13 µM; in test [4], 0.052 µM; in test [5] it was 0.0309 µM; in [6], 0.112 µM. Also, the results for the GI50 in test [7] and in [9] were 0.13 µM and 0.0969 µM, respectively. In addition, the TGI was 0.238 µM in [1]; 0.168 µM in [2]; 0.295 µM in [3]; 0.178 µM in test [4]; 0.13 µM in test [5]; 0.327 µM in test [6]. For the same molecule, the TGI in [7] was 0.259 µM; in [9], 0.217 µM.
